Test results published in patent US20020137929A1, “1 - (3-heterocyclylphenyl) isothiourea, -isourea, -guanidine and -amidine herbicidal agents” (Intellectual Property Department, BASF Aktiengesellschaft, priority 1998, published 2002).

Columns and labels:
[1] = system: TRZAWR (Wheat, Winter, cv Riband); assay: Postemergence herbicidal evaluation; type: in vivo, Triticum aestivum; conditions: postemergence
Outline: (§1)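 Two-week seedlings sprayed postemergence at 40 psi; formulation: 1:1 acetone/water, 0.5% TWEEN 20; application ≈0.0156–0.500 kg/ha. Greenhouse grow-out, then 0–9 visual scoring at 4–5 weeks.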

[2] = system: GALAP (Galium); assay: Postemergence herbicidal evaluation; type: in vivo, Galium aparine; conditions: postemergence
Outline: as §1

[3] = system: AMBEL (Ragweed, Common); assay: Postemergence herbicidal evaluation; type: in vivo, Ambrosia artemisifolia; conditions: postemergence
Outline: as §1

[4] = system: SAGPY (Arrowhead (Pygmaea)); assay: Postemergence weed control under flooded paddy conditions; type: in vivo, Sagittaria pygmaea; conditions: postemergence weeds, rated 3 to 4 weeks after treatment
Outline: (§2)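 Flood-water application, about 0.0313–0.500 kg/ha a.i. in aqueous/acetone 50/50 v/v; water depth 1.5–3 cm throughout. Weeds 3–5 cm, rice 1.5–2.5 leaf. Greenhouse; 0–9 visual rating vs control at 3–4 wk.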

[5] = system: CHEAL (Lambsquarters, Common); assay: Preemergence herbicidal evaluation; type: in vivo, Chenopodium album; conditions: rated 4-5 weeks after treatment; for CHEAL rating: preemergence, 0-9 scale
Outline: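 Each species is sown separately in potting soil over roughly an inch of soil before any emergence. The soil surface then receives an aqueous acetone spray delivering about 0.0156 to 0.500 kg/ha of compound. After four to five weeks, injury is scored from 0 to 9 relative to a control.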

[6] = system: MOOVA (Monochoria); assay: Postemergence weed control under flooded paddy conditions; type: in vivo, Monochoria vaginalis; conditions: postemergence weeds, rated 3 to 4 weeks after treatment
Outline: as §2

SMILES: CCOC(=O)CN1C(=O)C(CC(=O)OC(C)C(=O)OCC)S/C1=N/c1cc(-n2c(=O)cc(C(F)(F)F)n(C)c2=O)c(F)cc1Cl (stereo not drawn) [Compound 87]
- TRZAWR herbicidal rating ([1]; rate 0.0156 kg/ha): 2.5
- TRZAWR herbicidal rating ([1]; rate 0.0313 kg/ha): 3.0
- TRZAWR herbicidal rating ([1]; rate 0.0625 kg/ha): 4.5
- TRZAWR herbicidal rating ([1]; rate 0.1250 kg/ha): 4.5
- TRZAWR herbicidal rating ([1]; rate 0.2500 kg/ha): 6.0
- GALAP herbicidal rating ([2]; rate 0.0156 kg/ha): 0.0
- GALAP herbicidal rating ([2]; rate 0.0313 kg/ha): 0.0
- GALAP herbicidal rating ([2]; rate 0.0625 kg/ha): 1.0
- GALAP herbicidal rating ([2]; rate 0.1250 kg/ha): 1.0
- GALAP herbicidal rating ([2]; rate 0.2500 kg/ha): 3.0
- AMBEL herbicidal rating ([3]; rate 0.0156 kg/ha): 0.0
- AMBEL herbicidal rating ([3]; rate 0.0313 kg/ha): 4.0
- AMBEL herbicidal rating ([3]; rate 0.0625 kg/ha): 7.0
- AMBEL herbicidal rating ([3]; rate 0.1250 kg/ha): 9.0
- AMBEL herbicidal rating ([3]; rate 0.2500 kg/ha): 9.0
- Herbicidal rating SAGPY ([4]; Rate 0.0313 kg/ha): 0.0
- Herbicidal rating SAGPY ([4]; Rate 0.0625 kg/ha): 4.0
- Herbicidal rating SAGPY ([4]; Rate 0.1250 kg/ha): 4.0
- Herbicidal rating SAGPY ([4]; Rate 0.2500 kg/ha): 5.0
- Herbicidal rating SAGPY ([4]; Rate 0.5000 kg/ha): 7.0
- CHEAL rating ([5]; 0.1250 kg/ha): 4.0
- CHEAL rating ([5]; 0.2500 kg/ha): 9.0
- CHEAL rating ([5]; 0.5000 kg/ha): 9.0
- Herbicidal rating MOOVA ([6]; Rate 0.0313 kg/ha): 9.0
- Herbicidal rating MOOVA ([6]; Rate 0.0625 kg/ha): 9.0
- Herbicidal rating MOOVA ([6]; Rate 0.1250 kg/ha): 9.0
- Herbicidal rating MOOVA ([6]; Rate 0.2500 kg/ha): 9.0
- Herbicidal rating MOOVA ([6]; Rate 0.5000 kg/ha): 9.0

SMILES: Cn1c(C(F)(F)F)cc(=O)n(-c2cc(N=C3SCC(=O)N3CC(=O)OCC#N)c(Cl)cc2F)c1=O [Compound 109, 2-{{2-Chloro-5-[3,6-dihydro-3-methyl-2,6-dioxo-4-(trifluoromethyl)-1(2H)-pyrimidinyl]-4-fluorophenyl}imino}-4-oxo-3-thiazolidineacetic acid, ester with glycolonitrile]
- herbicidal rating TRZAWR ([1]; rate 0.0158 kg/ha): 3.0
- herbicidal rating TRZAWR ([1]; rate 0.0315 kg/ha): 4.0
- herbicidal rating TRZAWR ([1]; rate 0.0630 kg/ha): 4.5
- herbicidal rating GALAP ([2]; rate 0.0158 kg/ha): 1.0
- herbicidal rating GALAP ([2]; rate 0.0315 kg/ha): 3.0
- herbicidal rating GALAP ([2]; rate 0.0630 kg/ha): 5.0
- herbicidal rating AMBEL ([3]; rate 0.0158 kg/ha): 9.0
- herbicidal rating AMBEL ([3]; rate 0.0315 kg/ha): 9.0
- herbicidal rating AMBEL ([3]; rate 0.0630 kg/ha): 9.0
- Herbicidal rating SAGPY ([4]; Rate 0.0313 kg/ha): 0.0
- Herbicidal rating SAGPY ([4]; Rate 0.0625 kg/ha): 0.0
- Herbicidal rating SAGPY ([4]; Rate 0.1250 kg/ha): 0.0
- Herbicidal rating SAGPY ([4]; Rate 0.2500 kg/ha): 0.0
- Preemergence herbicidal rating CHEAL ([5]; rate 0.0156 kg/ha): 9.0
- Preemergence herbicidal rating CHEAL ([5]; rate 0.0313 kg/ha): 9.0
- Preemergence herbicidal rating CHEAL ([5]; rate 0.0625 kg/ha): 9.0
- Preemergence herbicidal rating CHEAL ([5]; rate 0.1250 kg/ha): 9.0
- Preemergence herbicidal rating CHEAL ([5]; rate 0.2500 kg/ha): 9.0
- Preemergence herbicidal rating CHEAL ([5]; rate 0.5000 kg/ha): 9.0
- Herbicidal rating MOOVA ([6]; Rate 0.0313 kg/ha): 2.0
- Herbicidal rating MOOVA ([6]; Rate 0.0625 kg/ha): 4.0
- Herbicidal rating MOOVA ([6]; Rate 0.1250 kg/ha): 9.0
- Herbicidal rating MOOVA ([6]; Rate 0.2500 kg/ha): 9.0

SMILES: CCOC(=O)CN1C(=O)C(CC(=O)NS(=O)(=O)c2ccccc2)SC1=Nc1cc(-n2c(=O)cc(C(F)(F)F)n(C)c2=O)c(F)cc1Cl (stereo not drawn) [Compound 100, Ethyl 2-{{2-chloro-5-[3,6-dihydro-3-methyl-2,6-dioxo-4-(trifluoromethyl)-1(2H)-pyrimidinyl]-4-fluorophenyl}imino}-4-oxo-5-{[(phenylsulfonyl)-carbamoyl]methyl]-3-thiazolidineacetate]
- herbicidal rating TRZAWR ([1]; rate 0.0156 kg/ha): 3.0
- herbicidal rating TRZAWR ([1]; rate 0.0313 kg/ha): 4.0
- herbicidal rating TRZAWR ([1]; rate 0.0625 kg/ha): 3.5
- herbicidal rating TRZAWR ([1]; rate 0.1250 kg/ha): 4.0
- herbicidal rating GALAP ([2]; rate 0.0156 kg/ha): 1.0
- herbicidal rating GALAP ([2]; rate 0.0313 kg/ha): 2.0
- herbicidal rating GALAP ([2]; rate 0.0625 kg/ha): 3.0
- herbicidal rating GALAP ([2]; rate 0.1250 kg/ha): 3.0
- herbicidal rating AMBEL ([3]; rate 0.0156 kg/ha): 9.0
- herbicidal rating AMBEL ([3]; rate 0.0313 kg/ha): 9.0
- herbicidal rating AMBEL ([3]; rate 0.0625 kg/ha): 9.0
- herbicidal rating AMBEL ([3]; rate 0.1250 kg/ha): 7.0
- Herbicidal rating SAGPY ([4]; Rate 0.0313 kg/ha): 0.0
- Herbicidal rating SAGPY ([4]; Rate 0.0625 kg/ha): 0.0
- Herbicidal rating SAGPY ([4]; Rate 0.1250 kg/ha): 0.0
- Herbicidal rating SAGPY ([4]; Rate 0.2500 kg/ha): 4.0
- Herbicidal rating SAGPY ([4]; Rate 0.5000 kg/ha): 6.0
- CHEAL rating ([5]; 0.0313 kg/ha): 9.0
- CHEAL rating ([5]; 0.0625 kg/ha): 9.0
- CHEAL rating ([5]; 0.1250 kg/ha): 9.0
- CHEAL rating ([5]; 0.2500 kg/ha): 9.0
- CHEAL rating ([5]; 0.5000 kg/ha): 9.0
- Herbicidal rating MOOVA ([6]; Rate 0.0313 kg/ha): 9.0
- Herbicidal rating MOOVA ([6]; Rate 0.0625 kg/ha): 9.0
- Herbicidal rating MOOVA ([6]; Rate 0.1250 kg/ha): 9.0
- Herbicidal rating MOOVA ([6]; Rate 0.2500 kg/ha): 9.0
- Herbicidal rating MOOVA ([6]; Rate 0.5000 kg/ha): 9.0
